We go through 2 compounds from patent US20240400572A1, “COMPOUNDS AND METHODS FOR TREATING CANCERS THAT ARE MGMT DEFICIENT REGARDLESS OF MMR STATUS” (Yale University, priority 2021, published 2024).

The assay deals with γH2AX, 53BP1 and pRPA foci in LN229 MGMT+/−, MMR+/− cells. Kind of assay: Immunofluorescence foci assays. It is filed as cell-based, human. The conditions noted are these: 20 μM; for γH2AX, 53BP1 and pRPA foci formation (in words): 2 to 48 h; for DDR foci across cell cycle phases (in words): 48 h, G1, S and G2 phases. As for the experimental part: Immunofluorescence Foci Assays. High-throughput immunofluorescence foci assays were performed at the Yale Center for Molecular Discovery (YCMD). Cells were seeded at 2000 cells/well in black polystyrene flat bottom 384-well plates (Greiner Bio-One) and allowed to adhere overnight. Compound addition was performed utilizing a Labcyte Echo 550 liquid handler (Beckman Coulter), with 6 replicates per test condition and 12 replicates per control condition. Following drug incubation, cells were fixed and stained for phospho-SER139-H2AX (γH2AX), 53BP1, or phospho-SER33-RPA2 (pRPA) as follows.
γH2AX protocol: Cells were fixed with 4% paraformaldehyde in 1×PBS for 15 min, washed twice with 1×PBS, incubated in extraction buffer (0.5% Triton X-100 in 1×PBS) for 10 min, washed twice with 1×PBS, and incubated in blocking buffer (Blocker Casein in PBS, Thermo Scientific+5% goat serum, Life Technologies) for 1 h. Mouse anti-phospho-histone H2A.X (Ser139) antibody (clone JBW301, Millipore, 05-636) was added 1/1000 in blocking buffer at 4° C. overnight. After washing with 1×PBS, cells were incubated with goat anti-mouse IgG (H+L) highly cross-adsorbed secondary antibody, Alexa Fluor 647 (Invitrogen, A-21236) 1/500 and with 1 μg/mL Hoechst nucleic acid dye in blocking buffer for 2 h, and then washed with 1×PBS.
53BP1 protocol: Cells were fixed with 4% paraformaldehyde+0.02% Triton X-100 in 1×PBS for 20 minutes, washed twice with 1×PBS, and incubated in blocking buffer (10% FBS, 0.5% Triton X-100 in 1×PBS) for 1 h. Rabbit anti-53BP1 antibody (Novus Biologicals, NB100-904) was added 1/1000 in blocking buffer at 4° C. overnight. After washing with 1×PBS, cells were incubated with goat anti-rabbit IgG (H+L) highly cross-adsorbed secondary antibody, Alexa Fluor 647 (Invitrogen, A-21245) 1/500 and with 1 μg/mL Hoechst nucleic acid dye in blocking buffer for 2 h, and then washed with 1×PBS.
pRPA protocol: Cells were washed twice with 1×PBS on ice, incubated in extraction buffer (0.5% Triton X-100 in 1×PBS) for 5 min on ice, fixed with 3% paraformaldehyde+2% sucrose in 1×PBS for 15 min at 23° C., incubated again in extraction buffer for 5 min on ice, and incubated in blocking buffer (2% BSA, 10% milk, 0.1% Triton X-100 in 1×PBS) for 1 h at 23° C. Rabbit anti-phospho-RPA2 (S33) antibody (Bethyl Laboratories, A300-246A) was added 1/1000 in blocking buffer at 4° C. overnight. […]
Additional small scale immunofluorescence assays used for extended time course analysis of γH2AX foci were performed in Millicell EZSLIDE 8-well chamber slides (Millipore). […] Imaging was performed on a Keyence BZ-X800 fluorescence microscope at 40× magnification. […]

Each structure is given as a SMILES string.

Take `NC(=O)c1ncn2c(=O)n(CCF)nnc12` [KL-50, 3-(2-fluoroethyl)-4-oxo-3H,4H-imidazo[4,3-d][1,2,3,5]tetrazine-8-carboxamide]: the “γH2AX, 53BP1 and pRPA foci formation (in words)” value is “maximal foci response at 48 h, specifically in MGMT− cells and irrespective of MMR status”; the “DDR foci across cell cycle phases (in words)” value is “foci formation primarily in the S- and G2-phases of the cell cycle”.

As to `Cn1nnc2c(C(N)=O)ncn2c1=O` [TMZ, temozolomide, reference compound], the “γH2AX, 53BP1 and pRPA foci formation (in words)” value is reported as “comparable response in MGMT− cells, but this was abolished in the absence of functional MMR”; the “DDR foci across cell cycle phases (in words)” value is on record as “did not observe foci induction or micronuclei formation in MGMT−/MMR− cells”.
